Experimental data published in patent publication US20210251234A1 (priority 2015, published 2021).
Where two headings read alike, the source gives them in different places.

How the values were obtained:
[1] = system: potato variety Caesar; assay: Potato tubercle production at harvest; format: in vivo, potato (Solanum tuberosum); settings: for Total production in Kilograms per parcel, Average: all categories, harvest; for Production in Kilograms per treatment categories: Combined: combined quality category; for Production in Kilograms per treatment categories: First: first quality category; for Production in Kilograms per treatment categories: Third: third quality category
Text: (§1) The seeding was made on June 10. The potato variety used was Caesar, third-category tubercles were used. A soil application was made to all the treatments when fluoxastrobin fungicides were applied; 2-litters dose or commercial product per hectare, and penfuflen 0.650 litters dose per hectare; in order to prevent Fusarium spp. and/or Rhizoctoniasolani fungus attack. The experimental design used was random blocks with four repetitions; the experimental parcel was formed by four furrows at a distance between furrows of 0.92 m, and 10 meters length. The useful parcel consisted in two central furrows of each experimental parcel. Distance between plants was 0.25 m.
(§2) The applied treatments consisted in an application on the bottom of the furrow when the seeding was taking place, and eleven foliar applications.
Production: In harvest, each treatment production was analyzed, for which two lineal meters were harvested of each experimental parcel central furrows, registering the potato tubercles production for each of the four categories (first, second, third and combined).

[2] = system: Zebra chip (Candidatus Liberibacter solanacearum); format: in vivo; settings: fried slices, under heading Flake Burning Severity
[3] = system: Zebra chip/purple top (Candidatus Liberibacter solanacearum / Candidatus Phytoplasma americanum); format: in vivo; settings: relative to untreated treatment 1
[4] = system: Bactericera cockerelli; assay: Bactericera cockerelli population dynamic (adults, nymphs, eggs) in potato field trial; format: in vivo; settings: for average of registered adults: B. cockerelli adults, four-repetitions average; for B. Cokerelli eggs population average / Average of registered B.cokerelli nymphs: average of four repetitions
Text: as §1, §2
Bactericera cockerelli, Population Dynamic: Studies on adult psilides, nymphs and eggs were population dynamic were made. For which purpose a count was made before the first foliar application and subsequently after each treatment application. To know the number of adults 20 net traps (with entomologic net) per experimental parcel, in each evaluation. To determine the number of eggs and nymphs, 50 pinnas were evaluated per parcel in each evaluation.

[5] = system: Zebra chip/purple top (Candidatus Liberibacter solanacearum); format: in vivo; settings: cross cut tubercles, relative to untreated
[6] = system: potato variety Caesar; assay: Cultivation emergence (germination) in potato field trial; format: in vivo, potato (Solanum tuberosum); settings: 22 days after seeding, plants emerged in central furrows
Text: as §1, §2
Emergence: Cultivation emergence was determined; for which the number of plants that emerged in each parcel central furrows was counted at 100% emergence. The data were collected on Jul. 2, 2014 (22 days after seeding).

`N#Cc1ccccc1NC(=O)c1snc(Cl)c1Cl` [Treatment 4, Isotianil] was tested, and the “Total production in Kilograms per parcel, Average” value ([1]; listed as 4) was 21.3 Kilograms per parcel, the “Production in Kilograms per treatment categories: Combined” value ([1]; listed as 4) was 37.7 Kilograms and the “Production in Kilograms per treatment categories: First” value ([1]; listed as 4) was 4 Kilograms. The “Production in Kilograms per treatment categories: Second” value ([1]; second quality category) was 7.8 Kilograms, the “Production in Kilograms per treatment categories: Third” value ([1]; listed as 4) was 35.7 Kilograms and the “Flake burning Incidence control percentage” value ([2]; listed as 4) was 54%. The “Zebra chip/purple top incidence control percentage” value ([3]; listed as 4) was 62.65%, the “average of registered adults” value ([4]; 02-Sep., listed as T4) was 0.25 and the “average of registered adults” value ([4]; 5-Aug., 20 net traps per parcel, listed as T4) was 0.75. For the same molecule, the “average of registered adults” value ([4]; 08-sep., listed as T4) was 0, the “average of registered adults” value ([4]; 12-Aug., listed as T4) was 2 and the “average of registered adults” value ([4]; 18-Aug., listed as T4) was 1. The “average of registered adults” value ([4]; 19-Sep., listed as T4) was 2.75, the “B. Cokerelli eggs population average” value ([4]; 02-Sep.) was 0 and the “B. Cokerelli eggs population average” value ([4]; 5-August, 50 pinnas per parcel) was 0. The “B. Cokerelli eggs population average” value ([4]; 08-sep., listed as T4) was 0.75, the “B. Cokerelli eggs population average” value ([4]; 12-August, listed as T4) was 4.5 and the “B. Cokerelli eggs population average” value ([4]; 18-August) was 0. The “B. Cokerelli eggs population average” value ([4]; 19-Sep.) was 0, the “Average of registered B.cokerelli nymphs” value ([4]; 02-Sep., listed as T4) was 13.75 and the “Average of registered B.cokerelli nymphs” value ([4]; 5-Aug., 50 pinnas per parcel) was 0. For the same molecule, the “Average of registered B.cokerelli nymphs” value ([4]; 08-sep., listed as T4) was 0, the “Average of registered B.cokerelli nymphs” value ([4]; 12-Aug., listed as T4) was 2.25 and the “Average of registered B.cokerelli nymphs” value ([4]; 18-Aug., listed as T4) was 0.25. For the same molecule, the “Average of registered B.cokerelli nymphs” value ([4]; 19-Sep.) was 0, the “tubercle staining Incidence Control Percentage” value ([5]; listed as 4) was 63.35% and the “tubercle staining Severity Control Percentage” value ([5]; listed as 4) was 74.50%. For the same molecule, the “Emergence Percentage” value ([6]; listed as 4) was 71.8%.
`N#Cc1ccccc1NC(=O)c1snc(Cl)c1Cl` [Treatment 3, Isotianil] was tested, and the “Total production in Kilograms per parcel, Average” value ([1]; listed as 3) was 17.975 Kilograms per parcel, the “Production in Kilograms per treatment categories: Combined” value ([1]; listed as 3) was 39.8 Kilograms and the “Production in Kilograms per treatment categories: First” value ([1]; listed as 3) was 0 Kilograms. The “Production in Kilograms per treatment categories: Third” value ([1]; listed as 3) was 24.3 Kilograms, the “Flake burning Incidence control percentage” value ([2]; listed as 3) was 31.3% and the “Zebra chip/purple top incidence control percentage” value ([3]; listed as 3) was 14.35%. The “average of registered adults” value ([4]; 02-Sep., listed as T3) was 1.75, the “average of registered adults” value ([4]; 5-Aug., 20 net traps per parcel, listed as T3) was 1 and the “average of registered adults” value ([4]; 08-sep., listed as T3) was 0.5. The “average of registered adults” value ([4]; 12-Aug., listed as T3) was 1.25, the “average of registered adults” value ([4]; 18-Aug., listed as T3) was 3.75 and the “average of registered adults” value ([4]; 19-Sep., listed as T3) was 4.75. For the same molecule, the “B. Cokerelli eggs population average” value ([4]; 08-sep., listed as T3) was 1.25, the “B. Cokerelli eggs population average” value ([4]; 12-August, listed as T3) was 1.5 and the “Average of registered B.cokerelli nymphs” value ([4]; 02-Sep., listed as T3) was 4.5. The “Average of registered B.cokerelli nymphs” value ([4]; 08-sep., listed as T3) was 3, the “Average of registered B.cokerelli nymphs” value ([4]; 12-Aug., listed as T3) was 0 and the “Average of registered B.cokerelli nymphs” value ([4]; 18-Aug., listed as T3) was 0. The “tubercle staining Incidence Control Percentage” value ([5]; listed as 3) was 35.01%, the “tubercle staining Severity Control Percentage” value ([5]; listed as 3) was 43.13% and the “Emergence Percentage” value ([6]; listed as 3) was 61.2%.
